{"source": "patent US7201896B1", "about": "“IL6RIL6 chimera for the treatment of neurodegenerative diseases” (Yeda Research and Development Company Ltd., priority 1999, dated 2007)", "key": {"[1]": {"tested_on": "rat cerebellar granule cells", "test": "Glutamate-induced neurotoxicity in primary cerebellar granule cells", "assay_type": "cell-based", "settings": "0.1 to 10 ng/ml; glutamate 50 μM", "description": "Activation of glutamate ionotropic receptors represents the primary event in the neurotoxicity process triggered by excitatory amino acids. Primary cultures of new born rat cerebella neurons (which contain >97% neurons) were employed for studying the effects of the IL6 chimera on glutamate-induced neurotoxicity and compared to the effects of IL-6.\nPrimary cultures of cerebellar granule cells were prepared from 8 day-old Sprague-Dawley rat pups as previously described (Pizzi et al. 1993). Cells were plated onto poly-L-Lysine-coated dishes and cultured in basal Eagle's medium containing 10% heat-inactivated foetal bovine serum, glutamine (2 mM), gentamicin (50 μg/ml), and KCl (25 mM), at a density of 2.5×10^5 cells/cm^2. Cytosine Arabinoside (10 μM) was added to the cultures 18 h after seeding to prevent non neuronal cell proliferation. Experiments were carried out after culturing the neurons for 10 days.\nUnless otherwise indicated, cultures were exposed for 15 min to 50 μM glutamate in a Mg^2+-free Locke's solution. IL6 or the IL6 chimera were added 5 min before glutamate treatment. Dishes were then returned to cultured conditioned medium at 37° C. in 95% air/5% CO2 and cell viability was measured 18–24 hours later.\nCell viability was evaluated 18 h later by intravital staining with fluorescein diaceate and propidium iodide mixture, as previously described (Pizzi et al. 1993). […]"}, "[2]": {"tested_on": "hippocampal organotypic slices", "test": "NMDA-induced cell death in hippocampal organotypic slices, propidium iodide", "assay_type": "cell-based, rat", "settings": "0.1 ng/ml", "description": "The cultures were prepared as previously described by Bahr et al. (Bahr 1995) with minor modifications. Hippocampi were dissected out from eight day old Wistar rats and 400 μm thick slices were laid down on a porous and transparent Millicell-CM membrane (Millipore) and cultured in 6 wells multiwell plates. Four slices were placed on each membrane. Culture medium consisted of 50% minimal essential medium (+25 mM HEPES, +4 mM NaHCO3+NaOH pH 7.2), 25% horse serum and 25% Hanks' solution, glucose (6.4 g/l), penicillin/streptomycin (10 ml/l), L-glutamine (2 mM). Cultures were kept in a 5% CO2 incubator set at a temperature of 37° C. for at least 3 weeks before being used. Medium was changed every week.\nHippocampal slices were exposed to IL6 or to the IL6 chimera at concentrations ranging […] for 15 min, thereafter NMDA 50 μM was added for additional 30 min. […] NMDA-induced cell death was evaluated either 1 or 3–7 days after the experimental injury by incubating cultures for 1 hour in fresh medium containing propidium iodide (PI 5 μl/ml). […] The emitted red fluorescence (marker of cell death) was examined using an inverted fluorescence microscope (Zeiss) associated with an intensified charged-coupled device camera. Quantification of total fluorescence was performed by an image analysis system (Image Pro Plus)."}, "[3]": {"tested_on": "Rat sciatic nerve Schwann cell lines cells with murine DRG neurons", "test": "Co-culture of DRG neuronal cells with fluorogold-labeled Schwann cells", "assay_type": "cell-based", "text": "By culturing murine DRG in the presence of DNA synthesis inhibitors arabinoseC (AraC) and fluorodeoxyuridine (FudR), neuronal cells can develop axons while glial cell proliferation is inhibited. These DRG cultures can be used as a source of neuronal cells with non-myelinated axons. Schwann cells are exogenously added to these cultures to study the interaction between neurons and Schwann cells.\nRat sciatic nerve Schwann cell lines cells were labeled with fluorogold, a label that penetrates the cell membrane lipid bi-layer and is maintained for an extensive period of time without affecting cell function. […] This system allows to study the various steps in the myelination process which are affected by the IL-6 chimera."}, "[4]": {"tested_on": "dorsal root ganglia (DRG) explants, embryonic Schwann cells", "test": "Embryonic dorsal root ganglia (DRG) explant cultures: microscopy, scanning EM, anti-MBP staining", "assay_type": "cell-based, mouse", "settings": "IL6RIL6 3 μg/ml, NGF 40 ng/ml", "description": "In the spinal cord, the dorsal root comprises essentially sensory neurons, which form synapses in the dorsal root ganglia (DRG). During mouse embryogenesis (at day e14–e15), DRGs are a convenient source of neurons and of embryonic Schwann cells which have not yet differentiated into myelinating SC. Procedures to obtain explants of DRGs for in vitro cultures are described by Li (1998). The cultures were performed on glass coverslips placed in the wells of Costar plates, in medium F12/DMEM (Gibco). The coverslips were coated either with collagen or with poly-D-lysine, with essentially similar results. Cultures were either done in medium without growth factor or cytokine additions or in medium supplemented with nerve growth factor (NGF, 40 ng/ml), or in medium supplemented with IL6RIL6 chimeric recombinant proteins (3 μg/ml). The cultures were examined daily by light microscopy with an Olympus inverted microscope linked to a video-camera imaging system (Leica LIDA system). Part of the coverslips were fixed in paraformaldehyde and MBP proteins were labeled with monoclonal primary antibodies to myelin basic proteins and fluorescein-conjugated secondary antibody. Neuronal cell bodies and axons were stained with antibodies to neurofilament protein. Some of the coverslips were examined by scanning electron microscopy (EM)."}}}
{"substance": "IL-6: Interleukin-6, cytokine used as comparator", "values": [{"measurement": "protection from glutamate-induced neurotoxicity", "setting": "[1]", "result": "no protective effect"}, {"measurement": "neuronal cells protected from NMDA-induced cell death", "setting": "[2]; after one day, NMDA 50 μM", "result": "approximately 50%"}, {"measurement": "cells protected from NMDA-induced cell death", "setting": "[2]; day 5", "result": 30, "unit": "%"}]}
{"substance": "NGF: nerve growth factor", "values": [{"measurement": "sheath formation around the axons", "setting": "[3]; after a few days", "result": "do not form a sheath"}, {"measurement": "binding of the Schwann cells along the axons", "setting": "[3]; within 5 hours", "result": "bind much less"}, {"measurement": "Staining with anti-MBP", "setting": "[4]", "result": "little MBP-specific fluorescence"}, {"measurement": "Schwann cells along axons in DRG explant cultures", "setting": "[4]; after 2 to 5 days", "result": "no Schwann cells were observed along the axons"}]}
